The values that follow come from ChEMBL document CHEMBL1129521, “Molecular modeling of azole antifungal agents active against Candida albicans. 1. A comparative molecular field analysis study” (1996).

In this assay the test system is Candida albicans. Put plainly: In vitro antimycotic activity of compound against Candida albicans was determined as -log MIC90 compound to that of -log MIC90 bifonazole. Type of assay: functional.

Molecules are shown by their SMILES.

For `COc1ccc(C(Cc2ccc(N)cc2)n2ccnc2)cc1` (stereo unspecified), the Ratio is 0.3.
In the case of `Fc1ccc(-n2ccc(C(c3ccc(Cl)cc3)n3ccnc3)c2)cc1` (stereo unspecified) it was 0.3; in that of `COc1ccc(C(Cc2ccc(Cl)cc2Cl)n2ccnc2)cc1` (stereo unspecified), 0.6.
Under `COc1ccc(C(Cc2ccc(Cl)cc2)n2cnnc2)cc1` (stereo unspecified) stands 1.8; under `COc1ccc(C(Cc2ccc([N+](=O)[O-])cc2)n2ccnc2)cc1` (stereo unspecified), 1.5.
Take `Cc1ccc(C(c2ccn(-c3ccccc3)c2)n2ccnc2)cc1` (stereo unspecified): the Ratio is 0.
Under `COc1ccc(C(Cc2ccccc2F)n2ccnc2)cc1` (stereo unspecified) stands 1.8; under `O=[N+]([O-])c1ccc(C(c2ccc(Cl)cc2)n2ccnc2)cc1` (stereo unspecified), 0; under `c1ccc(C(c2ccn(-c3ccccc3)c2)n2ccnc2)cc1` (stereo unspecified), 0.6.
In the case of `COc1ccc(-c2cn(Cc3ccc(Cl)cc3Cl)cc2C(c2ccccc2)n2ccnc2)cc1` (stereo unspecified) it was 1.8; in that of `CCC(c1ccc(Cl)cc1)C(c1ccc(OC)cc1)n1cncn1` (stereo unspecified), 1.5; in that of `COc1ccc(CC(c2ccc(OC)cc2)n2ccnc2)cc1` (stereo unspecified), 0.9.
Under `COc1ccc(C(Cc2ccc(Cl)cc2)n2ccnc2)cc1` (stereo unspecified) stands 0.6.
With `COc1ccc(C(Cc2cccc(F)c2)n2ccnc2)cc1` (stereo unspecified), the Ratio turned out to be 1.8.
`Cn1cc(-c2ccccc2)c(C(c2ccc3ccccc3c2)n2ccnc2)c1` (stereo unspecified): the Ratio is 2.4.
Under `c1ccc(-c2c[nH]cc2C(c2cccc3ccccc23)n2ccnc2)cc1` (stereo unspecified) stands 0.9; under `Clc1ccc(-c2cn(Cc3ccc(Cl)cc3Cl)cc2C(c2ccccc2)n2ccnc2)cc1` (stereo unspecified), 1.8; under `CCC(c1ccc(Cl)cc1)C(c1ccc(OC)cc1)n1cnnc1` (stereo unspecified), 1.8.
On to `COc1ccc(C(Cc2ccc(F)cc2)n2ccnc2)cc1` (stereo unspecified), for which the Ratio turned out to be 1.2.
Under `Cc1ccc(C(c2ccc(NC(=O)c3ccc(Cl)cc3Cl)cc2)n2ccnc2)cc1` (stereo unspecified) stands 0; under `COc1ccc(C(Cc2cccc(Cl)c2)n2ccnc2)cc1` (stereo unspecified), 1.5.
Under `Cc1ccc(-c2cn(C)cc2C(c2ccccc2)n2ccnc2)cc1` (stereo unspecified) stands 0.6; under `COc1ccc(C(C(Cc2ccc(Cl)cc2Cl)c2ccc(Cl)cc2)n2cncn2)cc1` (stereo unspecified), 1.8; under `Fc1ccc(-c2c[nH]cc2C(c2ccccc2)n2ccnc2)cc1` (stereo unspecified), 0.
Under `COc1ccc(C(Cc2cccc(-n3cccc3)c2)n2ccnc2)cc1` (stereo unspecified) stands 1.8; under `Cn1cc(-c2ccc(F)cc2)c(C(c2ccccc2)n2ccnc2)c1` (stereo unspecified), 0.6.
On to `Cc1ccc(C(c2ccn(-c3ccc(F)cc3)c2)n2ccnc2)cc1` (stereo unspecified), for which the Ratio was 0.3.
Under `Cc1ccc(C(c2ccc(-n3cccc3)cc2)n2ccnc2)cc1` (stereo unspecified) stands 0.9; under `COc1ccc(C(Cc2ccc(Cl)cc2)n2cncn2)cc1` (stereo unspecified), 1.5; under `COc1ccc(C(Cc2ccccc2Cl)n2ccnc2)cc1` (stereo unspecified), 1.8.
In the case of `Cn1cc(-c2ccccc2)c(C(c2cccc3ccccc23)n2ccnc2)c1` (stereo unspecified) it was 1.5.
As for `CCC(c1ccc([N+](=O)[O-])cc1)C(c1ccc(OC)cc1)n1ccnc1` (stereo unspecified), the Ratio is reported as 0.9.
Under `Cn1cc(-c2ccccc2)c(C(c2ccccc2)n2ccnc2)c1` (stereo unspecified) stands 0.6.
In the case of `COc1ccc(C(Cc2ccccc2[N+](=O)[O-])n2ccnc2)cc1` (stereo unspecified) it was 2.1; in that of `COc1ccc(C(Cc2ccccc2-n2cccc2)n2ccnc2)cc1` (stereo unspecified), 0.9; in that of `O=[N+]([O-])c1ccc(C(c2ccccc2)n2ccnc2)cc1` (stereo unspecified), 0.3.
In the case of `COc1ccc(C(C(Cc2ccc(Cl)cc2Cl)c2ccc(Cl)cc2)n2ccnc2)cc1` (stereo unspecified), the Ratio is reported as 1.2.
Under `COc1ccc(C(Cc2ccc(Cl)cc2Cl)C(c2ccc(OC)cc2)n2ccnc2)cc1` (stereo unspecified) stands 1.5; under `Fc1ccc(C(c2ccn(-c3ccc(F)cc3)c2)n2ccnc2)cc1` (stereo unspecified), 0.
Turning to `Cn1cc(-c2ccc(Cl)cc2)c(C(c2ccccc2)n2ccnc2)c1` (stereo unspecified), the Ratio is recorded as 0.
Under `Clc1ccc(Cn2cc(-c3ccccc3)c(C(c3ccccc3)n3ccnc3)c2)c(Cl)c1` (stereo unspecified) stands 1.5.
Consider `Cc1ccc(C(c2ccc([N+](=O)[O-])cc2)n2ccnc2)cc1` (stereo unspecified), for which the Ratio turned out to be 0.3.
In the case of `Fc1ccc(-n2ccc(C(c3ccccc3)n3ccnc3)c2)cc1` (stereo unspecified) it was 0.6.
Under `c1ccc(-c2c[nH]cc2C(c2ccc3ccccc3c2)n2ccnc2)cc1` (stereo unspecified) stands 0.9; under `Clc1ccc(-n2ccc(C(c3ccccc3)n3ccnc3)c2)cc1` (stereo unspecified), 0.3.
Under `Cc1ccc(C(c2ccn(-c3ccc(Cl)cc3)c2)n2ccnc2)cc1` (stereo unspecified) stands 0; under `COc1ccc(CC(c2ccc(OC)cc2)n2cnnc2)cc1` (stereo unspecified), 1.8; under `c1ccc(C(c2ccc(-n3cccc3)cc2)n2ccnc2)cc1` (stereo unspecified), 0.6.
`Clc1ccc(C(c2ccc(-n3cccc3)cc2)n2ccnc2)cc1` (stereo unspecified): the Ratio turned out to be 0.3.
Consider `Cc1ccc(-c2cn(Cc3ccc(Cl)cc3Cl)cc2C(c2ccccc2)n2ccnc2)cc1` (stereo unspecified), for which the Ratio worked out at 1.8.
For `Nc1ccc(C(c2ccccc2)n2ccnc2)cc1` (stereo unspecified), the Ratio is reported as 0.3.
In the case of `Fc1ccc(C(c2ccn(-c3ccc(Cl)cc3)c2)n2ccnc2)cc1` (stereo unspecified) it was 0.3; in that of `Fc1ccc(C(c2ccn(-c3ccccc3)c2)n2ccnc2)cc1` (stereo unspecified), 0.3; in that of `Clc1ccc(C(c2ccn(-c3ccc(Cl)cc3)c2)n2ccnc2)cc1` (stereo unspecified), 0.6.
Under `Clc1ccc(-c2c[nH]cc2C(c2ccccc2)n2ccnc2)cc1` (stereo unspecified) stands 0.3; under `c1ccc(-c2ccc(C(c3ccccc3)n3ccnc3)cc2)cc1` (stereo unspecified) [BIFONAZOLE], 0.
